Laboratory results taken from patent US20060241108A1, “Substituted phenoxazines and acridones as inhibitors of AKT” (St. Jude Children's Research Hospital, priority 2005, published 2006).
Read-outs that look alike come from different tables or passages of the source. Marks after values point to notes of the source that are not given here.

What was measured:
[1] = system: Rh30 cells; settings: 7.5 µM
Experimental: (§1) Determination of apoptosis. An ApoAlert™ Annexin V-FITC Apoptosis kit (available from Clontech, Palo Alto, Calif.) can be used to evaluate the extent of apoptosis within cell populations. Cells (Rh1: 350,000 per 75-cm^2 flask; Rh18: 800,000 per 75-cm^2 flask; or Rh30: 500,000 per 75-cm^2 flask) are preferably grown overnight in complete medium. On day 1, cells are treated with DMSO (0.1%; vehicle control) or with a test compound (e.g., a phenoxazine or acridone compound). After 4 days, the cells are trypsinized, washed with PBS, and resuspended in 200 μl of binding buffer. Cells are then incubated with 10 μl of annexin V-FITC (final concentration, 1 μg/ml) and 500 ng of propidium iodide in a final volume of 410 μl. Cells are preferably incubated at room temperature in the dark for ten minutes before flow cytometric analysis with an FACSCalibur™ Flow Cytometry System (Becton Dickinson, San Jose, Calif.).
(§2) For instance, Rh1, Rh18 and/or Rh30 cells can be grown in complete medium with 0.1% DMSO (as a negative control) or with one or more test compounds, e.g., any of the phenoxazine compounds listed in Table I, above, including but not limited to the compounds 10B, 11B, 13B, 14B or 15B. […] Cells are then harvested, and the extent of apoptosis evaluated, e.g., by an ApoAlert™ (Clontech, Palo Alto, Calif.) flow cytometric assay.

[2] = system: Rh1 cells; settings: 6.5 µM
Experimental: as §1, §2

[3] = system: Rh18 cells; settings: 7.5 µM
Experimental: as §1, §2

[4] = system: Rh18 cells; assay: Cell growth inhibition, Rh18 cells; type: cell-based, human; settings: complete medium, six days, nuclei counted
Experimental: Cell lines and growth conditions. The human cell lines Rh1, Rh18, and Rh30 (ATCC Deposit # CRL 2061) have been described, e.g., by Hazelton et al. Cancer Res 1987;47:4501-4507 and Hosoi et al. Cancer Res. 1999;59:886-894. Rh1, Rh18 and Rh30 cells can each be grown in antibiotic free RPMI-1640 medium (available from BioWhittaker, Walkersville, Md.), supplemented with 10% fetal bovine serum (available from HyClone Laboratories, Logan, Utah) and 2 mM L-glutamine (available from BioWhittaker, Walkersville, Md.) at 37° C. in an atmosphere of 5% CO2. For serum free experiments, cells can be cultured in modified N2E (MN2E) medium (DMEM/F-12, 1:1 mixture) (Sigma, St. Louis, Mo.) supplemented with 1 μg/ml human holo transferrin, 30 nM sodium selenite, 20 nM progesterone, 100 μM putrescine, 30 nM vitamin E phosphate, and 50 μM ethanolamine. […]
Cell growth inhibition. […] Growth can be assessed after lysing cells, and counting nuclei. […]
The effect(s) of compounds, including phenoxazine compounds such as those listed in Table I, above, on cell growth can be evaluated in cell-based assays such as the exemplary assays described here. Rh1, Rh18 and/or Rh30 cells grown in complete medium can be exposed to graded concentrations of test compound (e.g., from 0.1 to 25 μM) for six days, at which time the cells can be lysed and their growth assessed by counting nuclei. […]

[5] = system: endogenous AKT; assay: Cellular AKT kinase activity: AKT immunoprecipitated from treated Rh1 cells phosphorylates GSK-3 fusion protein; type: cell-based, human; settings: 5 μM, 1 hour, IGF-I 10 minutes
Experimental: Determination of cellular AKT kinase activity. AKT kinase activity can be quantitated using a commercial assay kit (available from Cell Signaling Technology, Beverly, Mass.) according to the manufacturer's instructions. Specifically, Rh1 cells are seeded in serum-free medium at a density of 4×10^6 per 10-cm plate. […] Cells are then stimulated with ±IGF-I ([…]) for 10 minutes and washed once with ice-cold PBS. Cells are lysed in 200 μl of ice-cold 1× lysis buffer (20 mM Tris, pH 7.5; 150 mM NaCl; 1 mM EDTA; 1 mM EGTA; 1% Triton X-100; 2.5 mM sodium pyrophosphate; 1 mM β-glycerol phosphate; 1 mM Na3VO4; 1 mM phenylmethylsulfonyl fluoride; and 1 mM leupeptin) and incubated for 10 minutes on ice. The cell lysates are then centrifuged for 10 minutes at 17,500×g at 4° C. Volumes of the supernatants are preferably adjusted so that each sample contains an equal amount of protein (150 μg). The supernatants are then incubated with immobilized (cross-linked) anti-AKT antibody (Cell Signaling Technology, Beverly, Mass., catalog # 9279) for 3 hours at 4° C. […]
To determine directly whether compounds, such as the phenoxazine compounds in Table I, inhibit AKT activation in cells, the activation of AKT by IGF-I can be evaluated by assessing either phosphorylation of AKT (Ser473), or the in vitro kinase activity of protein immunoprecipitated by anti-AKT antibody. […]

[6] = system: Rh1 cells; assay: Determination of apoptosis (Annexin V-FITC/propidium iodide flow cytometry), Rh1 cells; settings: Rh1, 6.5 μM, four days, n = 3
Experimental: as §1, §2

10-[4′-[(β-hydroxyethyl)piperazino]butyl]-2-chlorophenoxazine [Compound 15B]
Percentage of cells ± SD, Viable [1]: 11.00 ± 2.16^d %
Percentage of cells ± SD, Viable [2]: 23.33 ± 8.66^d %
Percentage of cells ± SD, Viable [3]: 67.00 ± 7.48%
IC50 [4]: 5 µM
phosphorylation of GSK-3 fusion protein by AKT immunoprecipitated from treated cells [5]: completely inhibited

CCN(CC)CCCCN1c2ccccc2Oc2ccc(Cl)cc21 [Compound 10B, 10-[4′-(N-diethylamino)butyl]-2-chlorophenoxazine]
IC50 [4]: 5 µM
phosphorylation of GSK-3 fusion protein by AKT immunoprecipitated from treated cells [5]: completely inhibited
Percentage of cells ± SD, Viable [6]: 47.70 ± 7.90%
